Reference: the supplement of paper PMC11061612

Assays:
[1] = system: Becker (Low Grade Glioma); assay: Bliss excess, mean over the matrix (fraction); higher = more synergy
Method in brief: (§1)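 Bliss excess equals the observed combination effect minus the expected value EA + EB − EA·EB, where EA and EB are the effects of each agent alone. Combination Emax is the second-highest inhibition within the matrix. Inhibition was scaled from CellTiter-Glo 2.0 luminescence, with 0 set by vehicle wells and 1 by blank wells, after 72 hours of two-drug dosing of cells plated in 1536-well plates.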

[2] = system: CML-T1 (Chronic Myelogenous Leukemia); assay: as above
Method in brief: as §1

[3] = system: COLO-684 (Endometrial Carcinoma); assay: as above
Method in brief: as §1

[4] = system: EB-3 (Burkitt's Lymphoma); assay: as above
Method in brief: as §1

ES-2 (Ovarian Carcinoma) = assay: as above
Method in brief: as §1

HuO-3N1 (Osteosarcoma) = assay: as above
Method in brief: as §1

KYM-1 (Rhabdomyosarcoma) = assay: as above
Method in brief: as §1

[5] = system: LAMA-84 (Chronic Myelogenous Leukemia); assay: as above
Method in brief: as §1

[6] = system: LOUCY (T-Lymphoblastic Leukemia); assay: as above
Method in brief: as §1

[7] = system: NCI-H810 (Non-Small Cell Lung Carcinoma); assay: as above
Method in brief: as §1

[8] = system: NKM-1 (Acute Myeloid Leukemia); assay: as above
Method in brief: as §1

[9] = system: OV-90 (Ovarian Carcinoma); assay: as above
Method in brief: as §1

[10] = system: PANC-02-03 (Pancreatic Carcinoma); assay: as above
Method in brief: as §1

[11] = system: PC-14 (Lung Adenocarcinoma); assay: as above
Method in brief: as §1

[12] = system: RMG-I (Ovarian Carcinoma); assay: as above
Method in brief: as §1

[13] = system: SJRH30 (Rhabdomyosarcoma); assay: as above
Method in brief: as §1

[14] = system: SK-MM-2 (Plasma Cell Myeloma); assay: as above
Method in brief: as §1

[15] = system: LAMA-84 (Chronic Myelogenous Leukemia); assay: combination Emax (second highest fraction inhibited in the dose matrix, 72 h); higher = more inhibition; extreme values may be limits of the assay
Method in brief: as §1

[16] = system: LOUCY (T-Lymphoblastic Leukemia); assay: as above
Method in brief: as §1

[17] = system: PANC-02-03 (Pancreatic Carcinoma); assay: as above
Method in brief: as §1

CS(=O)(=O)CCNCc1ccc(-c2ccc3ncnc(Nc4ccc(OCc5cccc(F)c5)c(Cl)c4)c3c2)o1 [Lapatinib] + NC1(c2ccc(-c3nc4ccn5c(=O)[nH]nc5c4cc3-c3ccccc3)cc2)CCC1 [MK-2206] (first compound max 10 µM, 7x7, partner max 10 µM)
Bliss excess [1]: 0.0516
Bliss excess [2]: -0.016
Bliss excess [3]: 0.0322
Bliss excess [4]: -0.0251
Bliss excess (ES-2 (Ovarian Carcinoma)): -0.131
Bliss excess (HuO-3N1 (Osteosarcoma)): -0.0437
Bliss excess (KYM-1 (Rhabdomyosarcoma)): 0.0255
Bliss excess [5]: -0.046
Bliss excess [6]: -0.0343
Bliss excess [7]: -0.0152
Bliss excess [8]: 0.0174
Bliss excess [9]: -0.0225
Bliss excess [10]: -0.0011
Bliss excess [11]: 0.0188
Bliss excess [12]: -0.0219
Bliss excess [13]: 0.0103
Bliss excess [14]: 0.0329
combination Emax [15]: 0.642
combination Emax [16]: 0.912
combination Emax [17]: 0.643
